According to paper PMC5982655, “Interaction of the New Monofunctional Anticancer Agent Phenanthriplatin With Transporters for Organic Cations” (Frontiers in Chemistry, 2018):
pEC50, pIC50: −log10 of the molar value.

Legend:
mOCT1 = molecular target: T1, mOCT1 (Mus musculus, UniProt O08966); assay: Inhibition of ASP+ uptake in HEK 293 cells expressing mOCT1; assay type: cell-based, murine; conditions: HEK 293 mOCT1, 1 μM ASP+
T1 construct: expressed in transfected cells
T1 sequence (O08966 1-556): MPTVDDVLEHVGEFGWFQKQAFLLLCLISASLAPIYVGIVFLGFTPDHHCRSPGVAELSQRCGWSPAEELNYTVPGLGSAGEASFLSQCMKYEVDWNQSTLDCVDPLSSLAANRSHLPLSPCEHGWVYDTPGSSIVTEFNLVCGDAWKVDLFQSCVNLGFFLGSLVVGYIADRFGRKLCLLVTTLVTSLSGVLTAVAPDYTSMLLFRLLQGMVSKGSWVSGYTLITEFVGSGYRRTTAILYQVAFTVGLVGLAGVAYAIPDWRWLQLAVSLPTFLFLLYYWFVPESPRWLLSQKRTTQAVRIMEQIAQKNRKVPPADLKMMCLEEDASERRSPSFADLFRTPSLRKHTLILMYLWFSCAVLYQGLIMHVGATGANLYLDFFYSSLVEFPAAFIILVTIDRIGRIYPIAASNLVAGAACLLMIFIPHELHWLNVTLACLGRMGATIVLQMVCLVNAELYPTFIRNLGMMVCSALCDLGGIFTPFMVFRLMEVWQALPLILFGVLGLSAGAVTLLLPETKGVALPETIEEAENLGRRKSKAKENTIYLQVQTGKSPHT
Experimental: (§1) The interaction of phenanthriplatin with transporters for organic cations (OCT1-3, MATE1, and MATE2K) was investigated by measuring its effects on the uptake of the fluorescent organic cation 4-(4-dimethylamino)styryl-N-methylpyridinium (ASP^+). Microfluorometric measurements of ASP^+ uptake were performed with a fluorescence plate reader (Infinity 200, Tecan, Crailsheim, Germany; excitation at 465 nm, emission at 590 nm) as described previously for cultured HEK 293 cells (Wilde et al., [2009]). Before measurements, the culture medium in the wells of the 96 well microtiter plate containing HEK 293 cells was replaced by a HCO3- -free Ringer-like solution containing (in mM) NaCl 145, K2HPO4 1.6, KH2PO4 0.4, D-glucose 5, MgCl2 1, calcium gluconate 1.3, and pH adjusted to 7.4. Fluorescence was measured dynamically at 37°C in each well before and after ASP^+ addition to HCO3- -free Ringer-like solution, alone or together with increasing phenanthriplatin concentrations, and plotted versus time. ASP^+ (final concentration 1 or 10 μM for experiments with OCTs or MATEs, respectively) was added after the third sampling interval. Emission from the complete area of the well bottom was analyzed four times and averaged for each well. […] Background fluorescence was measured for each plate in wells with identical solutions containing no cells and subtracted from each well containing cells. […]

hMATE2K = molecular target: T2, hMATE2K (Homo sapiens, UniProt Q86VL8); assay: Inhibition of ASP+ uptake in HEK 293 cells expressing hMATE2K; assay type: cell-based; conditions: HEK 293 hMATE2K, 10 μM ASP+
T2 construct: expressed in transfected cells
T2 sequence (Q86VL8 1-566 isoform Q86VL8-3): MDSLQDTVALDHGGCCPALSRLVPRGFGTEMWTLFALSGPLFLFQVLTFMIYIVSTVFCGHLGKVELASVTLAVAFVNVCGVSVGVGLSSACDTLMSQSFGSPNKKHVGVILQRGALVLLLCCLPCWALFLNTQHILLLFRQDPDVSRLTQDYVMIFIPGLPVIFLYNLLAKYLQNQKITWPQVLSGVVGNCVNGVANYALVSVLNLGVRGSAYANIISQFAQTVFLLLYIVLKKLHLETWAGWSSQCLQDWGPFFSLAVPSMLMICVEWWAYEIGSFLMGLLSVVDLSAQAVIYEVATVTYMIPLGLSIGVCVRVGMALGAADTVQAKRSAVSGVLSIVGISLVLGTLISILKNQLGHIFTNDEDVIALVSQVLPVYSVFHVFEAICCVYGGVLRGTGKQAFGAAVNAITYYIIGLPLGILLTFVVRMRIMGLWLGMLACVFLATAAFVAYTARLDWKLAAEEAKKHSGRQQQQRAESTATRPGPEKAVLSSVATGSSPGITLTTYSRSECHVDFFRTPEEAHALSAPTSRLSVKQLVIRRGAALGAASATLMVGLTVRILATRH
Experimental: as §1

Ctr1^+/+ MEFs = assay: MTT cell viability, Ctr1+/+ MEFs; assay type: cell-based, mouse
Experimental: (§2) A modified 3-(4,5-dimethylthiazol-2-yl)-2,5-diphenyltetrazolium bromide (MTT) assay (Mosmann, [1983]) was used to test the chemosensitivity of cells to phenanthriplatin and, in some experiments, to cisplatin by determining the glycolysis rate via the reduction of the yellow tetrazolium salt MTT to a purple formazan dye, as previously described (Wehe et al., [2014]). Briefly, after growing for 24 h in the incubator, cells expressing or not hOCT2, hMATE1, hMATE2 or Ctr1 were treated for 10 min with platinum derivatives. Control cells were incubated with drug-free complete cell culture medium. Afterwards, the medium was carefully removed and replaced by 200 μL of fresh complete cell culture medium. After incubation for another 24 h, 10 μL of MTT solution containing 5 mg/mL of the dye were added to each well, and the cells were again incubated for 3 h. The medium was then removed and 100 μL of lysis buffer containing 10% (w/v) sodium dodecyl sulfate and 40% (v/v) dimethylformamide was added to each well. The plates were shaken for 10 min to destroy the cell structure and dissolve the blue formazan dye (Furchert et al., [2007]; Wehe et al., [2014]). Finally, the absorbance was measured at 590 nm using an automated microtiter plate reader (Infinite M200; Tecan, Männedorf, Switzerland). The percentage of viable cells in the untreated controls was compared to that for the various treatments. Experiments carried out with DAOY and UW228 cells followed a similar protocol except that these cells were incubated for 24 h with phenanthriplatin.

UW228 cells = assay: MTT cell viability, UW228 medulloblastoma cells; assay type: cell-based
Experimental: as §2
Data are presented as mean values ± SEM, with (n) referring to the number of wells. IC50 values defined as the concentration of platinum agent required to inhibit uptake of ASP^+ by 50% and EC50 values used to assess cell viability were obtained by sigmoidal concentration-response curve fitting using GraphPad Prism, Version 5.3 (GraphPad Software, San Diego, USA). […] For multiple comparisons, ANOVA with Bonferroni post-test was used. A P-value < 0.05 was considered statistically significant.

- pIC50 (mOCT1): 4.77
- logIC50 (logEC50) ± SEM for inhibition of ASP+ uptake (mOCT1): −4.77 ± 0.22
- pIC50 (hMATE2K): 4.24
- logIC50 (logEC50) ± SEM for inhibition of ASP+ uptake (hMATE2K): −4.24 ± 0.07
- pEC50 (UW228 cells; UW228, 24 h incubation, MTT): 5.55
Structure (SMILES): N.N.[Cl][Pt+].c1ccc2c(c1)cnc1ccccc12 [phenanthriplatin, cis-[Pt(NH3)2Cl(phenanthridine)]^+]
- Cell viability (MTT) (Ctr1^+/+ MEFs; 1 mM, 10 min): toxic
- Cell viability (MTT) (Ctr1^+/+ MEFs; lower concentrations (<1 mM)): did not change the cell viability
- Protection from phenanthriplatin toxicity by cimetidine (cell viability, MTT) (UW228 cells; UW228, 24 h, 3 μM phenanthriplatin + 10-fold higher cimetidine): not in UW228 cells
- logEC50 ± SEM for viability (UW228 cells; UW228, 24 h incubation, MTT): −5.55 ± 0.03
